From paper PMC10643210, “Expanding structural diversity of 5′-aminouridine moiety of sansanmycin via mutational biosynthesis” (Frontiers in Bioengineering and Biotechnology, 2023)
Values after ≈ are worked out from the molar mass of the structure shown. Where two headings read alike, the source gives them in different places.

Tests used:
MraY A. aeolicus = details: Figure 1F, ref Mashalidis et al., 2019, cited from earlier work
Text: (§1) FIGURE 1 Chemical structures of natural UPAs (black) and synthetic analogues with modified 5′-aminouridine moiety (blue) and their corresponding inhibitory activity. (A) The pseudo-tetrapeptide backbone of UPAs. (B) The chemical structures of 5′-aminouridine of natural UPAs. (C–E) The chemical structures of modified 5′-aminouridine of synthetic analogues. (F) Detailed information on structure and inhibitory activities of natural UPAs and synthesized derivatives. Pae, Pseudomonas aeruginosa; Mtb, Mycobacterium tuberculosis; B. subtilis, Bacillus subtilis; S. aureus, Staphylococcus aureus; A. ae ...

Pae PAO1 = details: Figure 1F; ref Okamoto et al., 2012; cited from earlier work
M. tuberculosis S17 [1] = assay: microbe, parasite or virus in culture; details: Mycobacterium tuberculosis, S17, read-out: MIC M. tuberculosis S17
M. tuberculosis H37Rv [2] = assay: microbe, parasite or virus in culture; details: Mycobacterium tuberculosis, read-out: MIC M. tuberculosis H37Rv
P. aeruginosa 11 [3] = details: microdilution in Mueller-Hinton broth, 10 h at 37°C, visual read-out, triplicate
M. tuberculosis H37Rv [4] = tested on: M. tuberculosis H37Rv
M. tuberculosis S17 [5] = details: clinical isolate susceptible to isoniazid and rifampicin; Alamar blue, 7H9 broth, triplicate wells
E. coli ΔtolC = details: microdilution in Mueller-Hinton broth, 10 h at 37°C, visual read-out, triplicate
M. Phlei [6] = details: microdilution in Mueller-Hinton broth, 10 h at 37°C, visual read-out, triplicate
[7] = Stability in KH2PO4 buffer, HPLC; type: physicochemical; details: chemical stability, 0.05 M KH2PO4 buffer pH 6.0, room temperature (method: 28 °C), HPLC peak area, three parallel repeats
Procedure: Poor stability is one of the factors hindering the development of sansanmycin analogues into drug candidates. Thus, we conducted stability experiments followed the method reported previously ([Shi et al., 2016]) on the two active sansanmycin analogues, SS-KK-2 and SS-KK-3 (Figure 5). These experiments were carried out at room temperature with the parent compound SS-A as a control.
FIGURE 5 Stability of SS-A, SS-KK-2 and SS-KK-3. (A–C) HPLC analysis of SS-A, SS-KK-2 and SS-KK-3 at indicated days in KH2PO4 buffer (pH 6.0) at room temperature. (D) The changes of the level of SS-A, SS-KK-2 and SS-KK-3 over time. All samples were analyzed by HPLC and quantified according to the areas of peaks. Each sample underwent three parallel repeats. SS-A, black line; SS-KK-2, orange line; SS-KK-3, green line.
The stability assessment of sansanmycin A and its analogues was conducted using a previously reported method ([Shi et al., 2016]). Sansanmycins were dissolved in 0.05 M KH2PO4 buffer (with pH adjusted to 6.0 using NaOH) and incubated at 28 °C for 9 days with testing conducted every 3 days. Each sample underwent three parallel repeats. All samples were analyzed by HPLC and quantified by peak area analysis.

Mtb H37Rv [8] = details: Figure 1F, natural sansanmycins; reference not given; cited from earlier work
M. Phlei [9] = assay: microbe, parasite or virus in culture; details: Mycolicibacterium phlei, 10 h, read-out: MIC M. Phlei
P. aeruginosa 11 [10] = assay: microbe, parasite or virus in culture; details: Pseudomonas aeruginosa, 11, 10 h, read-out: MIC P. aeruginosa 11
Pae PAM1020 = details: Figure 1F; ref Boojamra et al., 2001; cited from earlier work
Mtb H37Rv [11] = details: Figure 1F, ref Tran et al., 2017, cited from earlier work
MraY B. subtilis = details: Figure 1F; ref Inukai et al., 1993; cited from earlier work
Text: as §1

In the case of 3′-hydroxymureidomycin A, the IC50 (MraY A. aeolicus; value in brackets) is given as 52 nM and the “IC50 (MraY A. aeolicus)” value (MraY A. aeolicus) is given as 0.045 µg/mL.

In the case of 3′-hydroxypacidamycin D, the “MIC (Pae PAO1)” value (Pae PAO1) is given as 32 µg/mL.

`NNC(=O)c1ccncc1` [INH, isoniazid] gave an MIC (M. tuberculosis S17 [1]) of 0.03 µg/mL (≈ 0.219 µM) and an MIC (M. tuberculosis H37Rv [2]) of 0.03 µg/mL (≈ 0.219 µM).

For `CC(=O)NC[C@H]1CN(c2ccc(N3CCOCC3)c(F)c2)C(=O)O1` [LZD, linezolid], the MIC (M. tuberculosis S17 [1]) was 0.25 µg/mL (≈ 0.741 µM) and the MIC (M. tuberculosis H37Rv [2]) was 0.25 µg/mL (≈ 0.741 µM).

For `CO[C@H]1/C=C/O[C@@]2(C)Oc3c(C)c(O)c4c(O)c(c(/C=N/N5CCN(C)CC5)c(O)c4c3C2=O)NC(=O)/C(C)=C\C=C\[C@H](C)[C@H](O)[C@@H](C)[C@@H](O)[C@@H](C)[C@H](OC(C)=O)[C@@H]1C` [RIF, rifampicin], the MIC (M. tuberculosis S17 [1]) was 0.25 µg/mL (≈ 0.304 µM) and the MIC (M. tuberculosis H37Rv [2]) was 0.125 µg/mL (≈ 0.152 µM).

For `CSCC[C@H](NC(=O)N[C@@H](Cc1c[nH]c2ccccc12)C(=O)O)C(=O)N[C@H](C(=O)N/C=C1/C[C@@H](O)[C@H](n2ccc(=O)[nH]c2=O)O1)[C@H](C)N(C)C(=O)[C@@H](N)Cc1cccc(O)c1` [SS-A, sansanmycin A], the “MIC P. aeruginosa 11” value (P. aeruginosa 11 [3]) was 16 µg/mL (≈ 18.5 µM), the “MIC M. tuberculosis H37Rv” value (M. tuberculosis H37Rv [4]) was 16 µg/mL (≈ 18.5 µM) and the “MIC M. tuberculosis S17” value (M. tuberculosis S17 [5]) was 16 µg/mL (≈ 18.5 µM). For the same compound, the “MIC E. coli ΔtolC” value (E. coli ΔtolC) was 4 µg/mL (≈ 4.63 µM), the “MIC M. Phlei” value (M. Phlei [6]) was 64 µg/mL (≈ 74.1 µM) and the “residual quantities after 9 days of incubation” value [7] was “below 70%”. For the same compound, the “MIC (Mtb H37Rv)” value (Mtb H37Rv [8]) was 16 µg/mL (≈ 18.5 µM).

With `CSCC[C@H](NC(=O)N[C@@H](Cc1c[nH]c2ccccc12)C(=O)O)C(=O)N[C@H](C(=O)NC[C@H]1O[C@@H](n2ccc(=O)[nH]c2=O)C[C@@H]1O)[C@H](C)N(C)C(=O)[C@@H](N)Cc1cccc(O)c1` [SS-KK-1] the “MIC P. aeruginosa 11” value (P. aeruginosa 11 [3]) was >32 µg/mL, the “MIC M. tuberculosis H37Rv” value (M. tuberculosis H37Rv [4]) was >64 µg/mL and the “MIC M. tuberculosis S17” value (M. tuberculosis S17 [5]) was >64 µg/mL. The “MIC E. coli ΔtolC” value (E. coli ΔtolC) was >32 µg/mL and the “MIC M. Phlei” value (M. Phlei [6]) was >32 µg/mL.

With `CSCC[C@H](NC(=O)N[C@@H](Cc1c[nH]c2ccccc12)C(=O)O)C(=O)N[C@H](C(=O)NC[C@H]1O[C@@H](n2ccc(=O)[nH]c2=O)C[C@@H]1O)[C@H](C)N(C)C(=O)[C@@H](N)Cc1ccc(O)cc1` [SS-KK-2] the “MIC P. aeruginosa 11” value (P. aeruginosa 11 [3]) was >32 µg/mL, the “MIC M. tuberculosis H37Rv” value (M. tuberculosis H37Rv [4]) was 32 µg/mL (≈ 37 µM) and the “MIC M. tuberculosis S17” value (M. tuberculosis S17 [5]) was 32 µg/mL (≈ 37 µM). The “MIC E. coli ΔtolC” value (E. coli ΔtolC) was 1 µg/mL (≈ 1.15 µM), the “MIC M. Phlei” value (M. Phlei [6]) was >32 µg/mL and the “stability compared with SS-A” value ([7]; 9 days, tested every 3 days) was “slightly higher level of stability than SS-A”.

With `[H]/N=C(/N)N[C@H]1[C@H](O)[C@@H](O)[C@H](O[C@@H]2O[C@@H](C)[C@](O)(C=O)[C@H]2O[C@@H]2O[C@@H](CO)[C@H](O)[C@@H](O)[C@@H]2NC)[C@@H](N/C(N)=N\[H])[C@@H]1O` [streptomycin] the MIC (M. Phlei [9]) was 16 µg/mL (≈ 27.5 µM), the “MIC E. coli ΔtolC” value (E. coli ΔtolC) was 2 µg/mL (≈ 3.44 µM) and the MIC (P. aeruginosa 11 [10]) was 8 µg/mL (≈ 13.8 µM).

For Dihydropacidamycin D, the “MIC (Pae PAM1020)” value (Pae PAM1020) is listed as 64 µg/mL.

In the case of Dihydrosansanmycin A, the “MIC50 (Mtb H37Rv)” value (Mtb H37Rv [11]; value in brackets) is listed as 0.50 ± 0.05 µM and the “MIC50 (Mtb H37Rv)” value (Mtb H37Rv [11]) is listed as 0.43 µg/mL.

In the case of Dihydrosansanmycin B, the “MIC50 (Mtb H37Rv)” value (Mtb H37Rv [11]; value in brackets) is listed as 0.30 ± 0.07 µM and the “MIC50 (Mtb H37Rv)” value (Mtb H37Rv [11]) is listed as 0.25 µg/mL.

For Dihydrosansanmycin C, the “MIC50 (Mtb H37Rv)” value (Mtb H37Rv [11]; value in brackets) is listed as 18.5 ± 0.70 µM and the “MIC50 (Mtb H37Rv)” value (Mtb H37Rv [11]) is listed as 16 µg/mL.

In the case of Mureidomycin A, the “IC50 (MraY B. subtilis)” value (MraY B. subtilis) is listed as 0.05 µg/mL.

For Pacidamycin D, the “MIC (Pae PAM1020)” value (Pae PAM1020) is given as 64 µg/mL and the “MIC (Pae PAO1)” value (Pae PAO1) is given as 64 µg/mL.

In the case of Sansanmycin B, the “MIC (Mtb H37Rv)” value (Mtb H37Rv [8]) is listed as 8 µg/mL.

For Sansanmycin C, the “MIC (Mtb H37Rv)” value (Mtb H37Rv [8]) is listed as > 32 µg/mL.
